Measured values reported in paper PMC6115404 (2018).

Experiments:
[1] = tested on: Tel26 (for FRET) (DNA, G4) AAAGGGTTAGGGTTAGGGTTAGGGAA; assay: FRET melting; details: K+ (60 mM potassium cacodylate); pH 7.4; 400 nM DNA, 1.0 equivalent compound; second Tm (ΔTm 41.5, dimeric complex) at 2-3 equivalents
[2] = tested on: wtTel26 (DNA, G4) TTAGGGTTAGGGTTAGGGTTAGGGTT; assay: 1H NMR titration; details: K+ (25 mM K-phosphate, 70 mM KCl); no well-defined complex at higher equivalents
[3] = tested on: F10T (for FRET), double-stranded DNA (DNA, hairpin, hexaethylene glycol (HEG) linker between nucleotides 10 and 11) TATAGCTATATATAGCTATA; assay: FRET melting; details: K+ (60 mM potassium cacodylate); pH 7.4; 400 nM DNA; compound concentration not in text
[4] = tested on: Tel26 (DNA, G4) AAAGGGTTAGGGTTAGGGTTAGGGAA; assay: NMR solution structure; details: K+ (25 mM K-phosphate, 70 mM KCl); pH 7.0, 25 °C; bound at 5'-end, slow exchange

Q: What does the source list for `NCCNCCN.NCCNCCN.NCCNCCN.[Pt+2].[Pt+2].[Pt+2].c1cc(-c2ccc(N(c3ccc(-c4ccncc4)cc3)c3ccc(-c4ccncc4)cc3)cc2)ccn1`?
A: ΔTm [1]: 8.4 °C; binding [2]: yes; ΔTm [3]: 2.5 °C; binding [4]: yes
